Data as given in ChEMBL document CHEMBL5352429, “Designed symmetrical β-hairpin peptides for treating multidrug-resistant salmonella typhimurium infections” (Eur J Med Chem, 2022).
In brackets after ≈: the same amount, converted by molar mass. Activity calls are given as the source filed them. The rule behind the calls is not given here. Peptide text beside a SMILES is read from it.

Tests used:
Salmonella typhimurium [1] = test: Antibacterial activity against Salmonella typhimurium DT104 in the presence of NH4Cl by MH broth based assay; assay type: functional, Salmonella enterica subsp. enterica serovar Typhimurium; details: Salmonella enterica
Salmonella paratyphi = test: Antibacterial activity against Salmonella paratyphi A CICC 21501 incubated overnight by standard microtiter dilution method; assay type: functional, Salmonella enterica subsp. enterica serovar Paratyphi A; details: Salmonella enterica
Salmonella typhimurium [2] = test: Antibacterial activity against multi-drug resistant Salmonella typhimurium DT104 assessed as inhibition of bacterial growth measured upto 120 mins by MH agar based serial dilution method; assay type: functional, organism-based; details: Salmonella enterica subsp. enterica serovar Typhimurium
RAW264.7 [3] = test: Inhibition of LPS-stimulated IL-1beta production in mouse RAW264.7 cells at 1 to 128 ug/ml incubated for 24 hrs by ELISA analysis; assay type: functional, cell-based; details: dose 1-128 µg/ml
Salmonella typhimurium [4] = test: Antibacterial activity against Salmonella typhimurium DT104 in the presence of CaCl2 by MH broth based assay; assay type: functional, Salmonella enterica subsp. enterica serovar Typhimurium; details: Salmonella enterica
[5] = Antibacterial activity against Salmonella wandsworth CICC 21504 incubated overnight by standard microtiter dilution method; assay type: functional, Salmonella enterica subsp. enterica serovar Wandsworth; details: Salmonella enterica
[6] = Antibacterial activity against Salmonella dublin CICC 21497 incubated overnight by standard microtiter dilution method; assay type: functional, Salmonella enterica subsp. enterica serovar Dublin; details: Salmonella enterica
Salmonella enteritidis = test: Antibacterial activity against Salmonella enteritidis CICC 21527 incubated overnight by standard microtiter dilution method; assay type: functional, Salmonella enterica subsp. enterica serovar Enteritidis; details: Salmonella enterica
Cell membrane = test: Disruption of membrane integrity in Salmonella typhimurium DT104 assessed as increase in fluorescence intensity at 0.5 to 2 times of MIC incubated for 15 mins by PI staining based flow cytometric analysis; assay type: subcellular; details: Salmonella enterica subsp. enterica serovar Typhimurium
RAW264.7 [7] = test: Inhibition of LPS-stimulated NO production in mouse RAW264.7 cells incubated for 24 hrs by Griess reagent based analysis; assay type: functional, cell-based; details: dose 1-128 µg/ml
Salmonella typhimurium [8] = test: Antibacterial activity against Salmonella typhimurium DT104 in the presence of FeCl3 by MH broth based assay; assay type: functional, Salmonella enterica subsp. enterica serovar Typhimurium; details: Salmonella enterica
Salmonella typhimurium [9] = test: Antibacterial activity against Salmonella typhimurium DT104 in the presence of KCl by MH broth based assay; assay type: functional, Salmonella enterica subsp. enterica serovar Typhimurium; details: Salmonella enterica
RAW264.7 [10] = test: Inhibition of LPS-stimulated IL-8 production in mouse RAW264.7 cells at 1 to 128 ug/ml incubated for 24 hrs by ELISA analysis; assay type: functional, cell-based; details: dose 1-128 µg/ml
Staphylococcus aureus [11] = test: Antibacterial activity against Staphylococcus aureus ATCC 29213 incubated overnight by standard microtiter dilution method; assay type: functional
Salmonella typhimurium [12] = test: Antibacterial activity against Salmonella typhimurium DT104 in the presence 50% inactivated mouse serum by MH broth based assay; assay type: functional, Salmonella enterica subsp. enterica serovar Typhimurium; details: Salmonella enterica
Salmonella typhimurium [13] = test: Antibacterial activity against Salmonella typhimurium DT104 in the presence of MgCl2 by MH broth based assay; assay type: functional, Salmonella enterica subsp. enterica serovar Typhimurium; details: Salmonella enterica
Enterococcus faecalis = test: Antibacterial activity against Enterococcus faecalis ATCC 29212 incubated overnight by standard microtiter dilution method; assay type: functional
[14] = system: Staphylococcus epidermidis; test: Antibacterial activity against methicillin-resistant Staphylococcus epidermidis ATCC 12228 incubated overnight by standard microtiter dilution method; assay type: functional
Salmonella typhimurium [15] = test: Antibacterial activity against Salmonella typhimurium CICC 21913 incubated overnight by standard microtiter dilution method; assay type: functional, Salmonella enterica subsp. enterica serovar Typhimurium; details: Salmonella enterica
[16] = Antibacterial activity against Salmonella enterica subsp. enterica serovar Choleraesuis CICC 21493 incubated overnight by standard microtiter dilution method; assay type: functional
Erythrocyte = test: Hemolytic activity in human Red blood cells assessed as hemolysis incubated for 1 hrs by absorbance based microplate reader analysis; assay type: toxicity, cell-based
[17] = Antibacterial activity against Salmonella paratyphi C CICC 21512 incubated overnight by standard microtiter dilution method; assay type: functional, Salmonella enterica subsp. enterica serovar Paratyphi C; details: Salmonella enterica
[18] = system: Salmonella enterica subsp. enterica serovar Paratyphi B; test: Antibacterial activity against Salmonella paratyphi B CICC 21495 incubated overnight by standard microtiter dilution method; assay type: functional
Candida albicans = test: Antifungal activity against Candida albicans ATCC 10231 incubated overnight by standard microtiter dilution method; assay type: functional
RAW264.7 [19] = test: Inhibition of LPS-stimulated TNF-alpha production in mouse RAW264.7 cells at 1 to 128 ug/ml incubated for 24 hrs by ELISA analysis; assay type: functional, cell-based; details: dose 1-128 µg/ml
Salmonella typhimurium [20] = test: Antibacterial activity against Salmonella typhimurium DT104 ATCC 700408 incubated overnight by standard microtiter dilution method; assay type: functional, Salmonella enterica subsp. enterica serovar Typhimurium; details: Salmonella enterica
Salmonella typhimurium [21] = test: Antibacterial activity against Salmonella typhimurium DT104 in the presence 25% inactivated mouse serum by MH broth based assay; assay type: functional, Salmonella enterica subsp. enterica serovar Typhimurium; details: Salmonella enterica
Salmonella typhimurium [22] = test: Antibacterial activity against Salmonella typhimurium DT104 in the presence of NaCl by MH broth based assay; assay type: functional, Salmonella enterica subsp. enterica serovar Typhimurium; details: Salmonella enterica
Lipopolysaccharide (LPS) = test: Displacement of BODIPY-TR-cadaverine from Salmonella typhimurium LPS assessed as increase in fluorescence intensity by fluorescence spectrophotometric analysis; details: Salmonella enterica subsp. enterica serovar Typhimurium; dose 0.25-8 µg/ml
Staphylococcus aureus [23] = test: Antibacterial activity against methicillin-resistant Staphylococcus aureus ATCC 43300 incubated overnight by standard microtiter dilution method; assay type: functional
Salmonella typhimurium [24] = test: Antibacterial activity against Salmonella typhimurium CICC 21483 incubated overnight by standard microtiter dilution method; assay type: functional, Salmonella enterica subsp. enterica serovar Typhimurium; details: Salmonella enterica
[25] = Antibacterial activity against Salmonella enterica subsp. enterica serovar Choleraesuis ATCC 13312 incubated overnight by standard microtiter dilution method; assay type: functional
[26] = Hemolytic activity in human Red blood cells assessed as hemolysis at 128 ug/ml incubated for 1 hrs by absorbance based microplate reader analysis relative to control; assay type: toxicity, cell-based, Erythrocyte; details: red blood cells (erythrocytes), at 128 µg/mL, read-out: Activity
Salmonella typhimurium [27] = test: Antibacterial activity against multi-drug resistant Salmonella typhimurium DT104 assessed as inhibition of bacterial growth at 0.5 to 2 times of MIC by MH agar based serial dilution method; assay type: functional, organism-based; details: Salmonella enterica subsp. enterica serovar Typhimurium, time <= 120.0 min, TDE = time-dependent effect
[28] = Cytotoxicity against mouse RAW264.7 cells assessed as cell viability at 128 ug/ml incubated for 24 hrs by MTT assay; assay type: toxicity, cell-based; details: at 128 µg/mL, read-out: Activity
Escherichia coli = test: Antibacterial activity against Escherichia coli O157:H7 CICC 21530 incubated overnight by standard microtiter dilution method; assay type: functional
[29] = Antibacterial activity against Salmonella blockley CICC 21489 incubated overnight by standard microtiter dilution method; assay type: functional, Salmonella enterica subsp. enterica serovar Blockley; details: Salmonella enterica

Row | Structure (SMILES) | MIC (Salmonella typhimurium [1]) [µg/mL] | MIC (Salmonella paratyphi) [µg/mL] | Activity (Salmonella typhimurium [2]) | inhibition (RAW264.7 [3]) | MIC (Salmonella typhimurium [4]) [µg/mL] | MIC [5] [µg/mL] | MIC [6] [µg/mL] | MIC (Salmonella enteritidis) [µg/mL] | Activity (Cell membrane) | inhibition (RAW264.7 [7]) | MIC (Salmonella typhimurium [8]) [µg/mL] | MIC (Salmonella typhimurium [9]) [µg/mL] | inhibition (RAW264.7 [10]) | MIC (Staphylococcus aureus [11]) [µg/mL] | MIC (Salmonella typhimurium [12]) [µg/mL] | MIC (Salmonella typhimurium [13]) [µg/mL] | MIC (Enterococcus faecalis) [µg/mL] | MIC [14] [µg/mL] | MIC (Salmonella typhimurium [15]) [µg/mL] | MIC [16] [µg/mL] | also measured
1 | CC(C)C[C@H](NC(=O)[C@H](CCCCN)NC(=O)[C@H](CC(C)C)NC(=O)[C@H](CCCCN)NC(=O)[C@H](CC(C)C)NC(=O)[C@H](CCCCN)NC(=O)[C@H](CS)NC(=O)CNC(=O)[C@H](CO)NC(=O)[C@H](CCCCN)NC(=O)[C@@H](NC(=O)[C@H](CS)NC(=O)[C@H](CCCCN)NC(=O)[C@H](CC(C)C)NC(=O)[C@H](CCCCN)NC(=O)[C@H](CC(C)C)NC(=O)[C@H](CCCCN)NC(=O)[C@@H](N)CC(C)C)[C@@H](C)O)C(N)=O (H-LKLKLKCTKSGCKLKLKL-NH2) | > 128 | > 128 | Dose-Dependent Effect | Active | > 128 | 128 (≈ 62.6 µM) | 32 (≈ 15.6 µM) | 64 (≈ 31.3 µM) | Active | Dose-Dependent Effect | > 128 | > 128 | Active | > 128 | > 128 | > 128 | 64 (≈ 31.3 µM) | 32 (≈ 15.6 µM) | > 128 | 128 (≈ 62.6 µM) | MHC (Erythrocyte): 64 µg/mL; MIC [17]: 4 µg/mL (≈ 1.96 µM); MIC [18]: 4 µg/mL (≈ 1.96 µM); MIC (Candida albicans): 128 µg/mL (≈ 62.6 µM); inhibition (RAW264.7 [19]): Active; MIC (Salmonella typhimurium [20]): 64 µg/mL (≈ 31.3 µM); MIC (Salmonella typhimurium [21]): > 128 µg/mL; MIC (Salmonella typhimurium [22]): > 128 µg/mL; Activity (Lipopolysaccharide (LPS)): Dose-Dependent Effect; MIC (Staphylococcus aureus [23]): > 128 µg/mL; MIC (Salmonella typhimurium [24]): 128 µg/mL (≈ 62.6 µM); MIC [25]: 4 µg/mL (≈ 1.96 µM); hemolysis at 1 h, 128 ug/ml [26]: 16.4%; Activity (Salmonella typhimurium [27]): Tde; viability at 24 h, 128 ug/ml [28]: 14.2%; MIC (Escherichia coli): 8 µg/mL (≈ 3.91 µM); MIC [29]: 128 µg/mL (≈ 62.6 µM)
2 | C[C@@H](O)[C@H](NC(=O)[C@H](CS)NC(=O)[C@H](CCCCN)NC(=O)[C@H](Cc1c[nH]c2ccccc12)NC(=O)[C@H](CCCCN)NC(=O)[C@H](Cc1c[nH]c2ccccc12)NC(=O)[C@H](CCCCN)NC(=O)[C@@H](N)Cc1c[nH]c2ccccc12)C(=O)N[C@@H](CCCCN)C(=O)N[C@@H](CO)C(=O)NCC(=O)N[C@@H](CS)C(=O)N[C@@H](CCCCN)C(=O)N[C@@H](Cc1c[nH]c2ccccc12)C(=O)N[C@@H](CCCCN)C(=O)N[C@@H](Cc1c[nH]c2ccccc12)C(=O)N[C@@H](CCCCN)C(=O)N[C@@H](Cc1c[nH]c2ccccc12)C(N)=O (H-WKWKWKCTKSGCKWKWKW-NH2) | > 128 | 4 (≈ 1.61 µM) | Dose-Dependent Effect | Active | > 128 | 4 (≈ 1.61 µM) | 8 (≈ 3.22 µM) | 16 (≈ 6.44 µM) | Active | Dose-Dependent Effect | > 128 | > 128 | Active | 4 (≈ 1.61 µM) | 128 (≈ 51.5 µM) | > 128 | 2 (≈ 0.805 µM) | 4 (≈ 1.61 µM) | 4 (≈ 1.61 µM) | 16 (≈ 6.44 µM) | MHC (Erythrocyte): 32 µg/mL; MIC [17]: 4 µg/mL (≈ 1.61 µM); MIC [18]: 1 µg/mL (≈ 0.403 µM); MIC (Candida albicans): 32 µg/mL (≈ 12.9 µM); inhibition (RAW264.7 [19]): Active; MIC (Salmonella typhimurium [20]): 32 µg/mL (≈ 12.9 µM); MIC (Salmonella typhimurium [21]): 64 µg/mL (≈ 25.8 µM); MIC (Salmonella typhimurium [22]): > 128 µg/mL; Activity (Lipopolysaccharide (LPS)): Dose-Dependent Effect; MIC (Staphylococcus aureus [23]): 4 µg/mL (≈ 1.61 µM); MIC (Salmonella typhimurium [24]): 32 µg/mL (≈ 12.9 µM); MIC [25]: 0.5 µg/mL (≈ 0.201 µM); hemolysis at 1 h, 128 ug/ml [26]: 30.8%; Activity (Salmonella typhimurium [27]): Tde; viability at 24 h, 128 ug/ml [28]: 36.6%; MIC (Escherichia coli): 4 µg/mL (≈ 1.61 µM); MIC [29]: > 128 µg/mL
